Test results reported in patent publication US10774039B2, “Cyclopropene amino acids and methods” (United Kingdom Research and Innovation, priority 2014, dated 2020).

How the values were obtained:
PylRS/tRNACUA pair = experiment: Site-specific incorporation into sfGFP150TAG expressed in E. coli; type: cell-based, Methanosarcina barkeri
Protocol: FIG. 2A: The PylRS/RNACUA pair directs efficient, site-specific incorporation of 3 into sfGFP bearing an amber stop codon at position 150.
Expression and purification of sfGFP-3 from E. coli Electrocompetent E. coli DH10B cells were co-transformed with pBK-MbPylRS and psfGFP150TAG PyIT^14, 26. Transformed cells were recovered in S.O.B. (1 mL, supplemented with 0.2% glucose) for 1 h at 37° C. and used to inoculate LB containing 50 μg/mL kanamycin and 25 μg/mL tetracycline (LB-KT). The cells were incubated with shaking overnight at 37° C., 250 r.p.m. 1 mL of overnight culture was used to inoculate 100 mL of LB-KT½, the day culture was then incubated (37° C., 250 r.p.m). At O.D.600˜0.3, the culture was divided equally and supplemented with either 3 (1 mM) or H2O (500 μL) and incubated further (37° C., 250 r.p.m). At O.D.600˜0.6 protein expression was induced by the addition of arabinose (0.2%), after 4 h, the cells were harvested by centrifugation (4000 r.p.m, 20 min) and the pellet frozen until further use.
The frozen bacterial pellet was thawed on ice and resuspended in 2.5 mL lysis buffer (Bugbuster®, Novagen®, 50 μg/mL DNAse 1, Roche inhibitor cocktail and 20 mM imidazole). Cells were incubated (4° C., 30 minutes) then clarified by centrifugation (16000 g, 4° C., 30 minutes). The clarified lysates were transferred to fresh tubes and 100 μL Ni-NTA slurry added. The mixtures was incubated with agitation (4° C., 1 h) and then collected by centrifugation (1000 g, 4° C., 5 min). The beads were resuspended three times in 500 μL wash buffer (10 mM Tris-HCL, 40 mM imidazole, 200 mM NaCl, pH 8) and collected by centrifugation (1000 g, 4° C., 5 min). Finally, the beads were resuspended in 100 μL, elution buffer (10 mM Tris-HCL, 300 mM imidazole, 200 mM NaCl, pH 8), pelleted by centrifugation (1000 g, 4° C., 5 min) and the supernatant collected into fresh tubes. The elution was repeated three times with 100 μL of elution buffer. The purified proteins were analysed by 4-12% SDS-PAGE and LC-MS.

[1] = In vitro labelling of purified sfGFP150 proteins with tetrazine-dye conjugate 4a, time course and rate constant; details: restated in example 6
Protocol: FIG. 2C: Determining the rate constant for labelling of sfGFP-3 (10.6 sfGFP incorporating 3 at position 150), with 10 equivalents of 4a. 2 nmol of purified sfGFP-3, (10.6 μM in 20 mM Tris-HCl, 100 mM NaCl, 2 mM EDTA, pH 7.4) were incubated with 20 nmol of tetrazine-dye conjugate 4a (10 μl of a 2 mM solution in DMSO). At different time points 8 μl, aliquots were taken from the solution and quenched with a 700-fold excess of BCN and plunged into liquid nitrogen. Samples were mixed with NuPAGE LDS sample buffer supplemented with 5% β-mercaptoethanol, heated for 10 min to 90° C. and analyzed by 4-12% SDS page. The amounts of labelled proteins were quantified by scanning the fluorescent bands with a Typhoon Trio phosphoimager (GE Life Sciences). Bands were quantified with the ImageQuant™ TL software (GE Life Sciences) using rubber band background subtraction. The rate constant was determined by fitting the data to a single-exponential equation. The calculated observed rate k′ was divided by the concentration of 4a to obtain rate constant k for the reaction. Measurements were done in triplicate. All data processing was performed using Kaleidagraph software (Synergy Software, Reading, UK). […]

DH10B cells = experiment: E. coli growth (OD600) in presence of 3 during SORT-M; type: cell-based
Protocol: Chemically competent DH10B cells were transformed with two plasmids: pBKwtPylRS necessary for expression of PylRS, and pBAD_wtT4L_MbPylTXXX plasmids that is required for expression of PyltRNAXXX and expresses lysozyme under arabinose control. […] 200 μL aliquots of these cultures were transferred into a 96-well plate and OD600 measured using a Microplate reader, Infinite 200 Pro (TECAN). OD600 was measured for each sample every 10 min with linear 1 mm shaking between the measurements.

CC1=CC1COC(=O)NCCCC[C@H](N)C(=O)O (stereo partly drawn) [amino acid 3, N^ε-[((2-methylcycloprop-2-en-1-yl)methoxy)carbonyl]-L-lysine]
yield of protein (PylRS/tRNACUA pair; SfGFP gene with amber codon at position 150, E. coli, PylRS/tRNACUA pair): 8 mg per litre of culture | efficiency of site-specific incorporation into sfGFP (PylRS/tRNACUA pair; amber stop codon at position 150, E. coli, compared with 1): more efficient than 1 | on-protein rate constants of reaction with tetrazines [1]: 27 M⁻¹ s⁻¹ | toxicity to cells of incorporation via SORT-M (DH10B cells; 0.1 mM): Not Toxic | effect on cell growth (DH10B cells; 0.1 or 0.5 mM): little or no effect on cell growth
